Assay results as given in patent US8178574B2, “Tosylate salt of trans-N-isobutyl-3-fluoro-3-[3-fluoro-4-(pyrrolidin-1-yl-methyl)-phenyl] cyclobut anecarboxamide” (Pfizer Inc., priority 2007, dated 2012).
Where a name gives a salt, the structure may show the parent alone.

Legend:
[1] = Aqueous solubility of the crystalline compound (RP-HPLC after temperature cycling); format: physicochemical; conditions: for solubility thermodynamic at 25 h: aqueous buffer
Method: The following information was determined in regard of aqueous solubility. […] These values represent the solubility of the crystalline compound determined via RP-HPLC analysis after subjecting the drug media mixture to a temperature cycling program (40° C. for 8 hours, 15° C. for 5 hours, and 25° C. for 12 hours).

[2] = Hygroscopicity by dynamic vapor sorption (VTI, kinetic experiment); format: physicochemical
Method: Hygroscopicity was assessed using a dynamic vapor sorption technique in which an accurately weighed sample is subjected to progressively changing water vapor pressure while simultaneously recording the weight change. The experiment is conducted isothermally at 25° C.
During the initial drying cycle (25° C., 1-3% RH), approximately 0.8% weight loss was observed, which is consistent with an anhydrous form. The sample gained 0.5% of its original weight when exposed to relative humidities from 0% to 90% at 25° C. (CQG≦2% wt. gain at 90% RH). […] FIG. 5 (VTI Moisture Sorption Data) reports results achieved in a step isotherm at a heating rate of 1° C./minute.

- solubility ([1]; 0.1M phosphate buffered saline with 0.5 weight percent sodium taurocholate/phosphatidyl choline salts, final pH 7.4): 7.0 mgA/mL
- solubility thermodynamic at 25 h ([1]; 0.1M phosphate buffered saline, final pH 6.3, temperature cycling 40/15/25° C.): 5000 µg/mL
- solubility thermodynamic at 25 h ([1]; unbuffered water, final pH 4.7): 8400 µg/mL
- weight loss during initial drying cycle ([2]; 25° C., 1-3% RH): approximately 0.8%
- hygroscopicity (in words) ([2]; kinetic experiment (VTI), 25° C.): very slightly hygroscopic
- weight gain (of original weight) ([2]; relative humidities from 0% to 90% at 25° C.): 0.5%
Compound: CC(C)CNC(=O)[C@H]1C[C@@](F)(c2ccc(CN3CCCC3)c(F)c2)C1 [tosylate salt of the invention]
